Measurements reported in ChEMBL document CHEMBL4725449, “Brain Penetrable Inhibitors of Ceramide Galactosyltransferase for the Treatment of Lysosomal Storage Disorders” (ACS Med Chem Lett, 2020).
Values after ≈ are worked out from the molar mass of the structure shown.

Legend:
[1] = biological target: T1, 2-hydroxyacylsphingosine 1-beta-galactosyltransferase (Homo sapiens, UniProt Q16880); assay: Inhibition of UGT8 in human OE19 cells assessed as redcution in SFT accumulation measured after 72 hrs by LC-MS/MS analysis; type: cell-based
T1 sequence (Q16880 whole entry): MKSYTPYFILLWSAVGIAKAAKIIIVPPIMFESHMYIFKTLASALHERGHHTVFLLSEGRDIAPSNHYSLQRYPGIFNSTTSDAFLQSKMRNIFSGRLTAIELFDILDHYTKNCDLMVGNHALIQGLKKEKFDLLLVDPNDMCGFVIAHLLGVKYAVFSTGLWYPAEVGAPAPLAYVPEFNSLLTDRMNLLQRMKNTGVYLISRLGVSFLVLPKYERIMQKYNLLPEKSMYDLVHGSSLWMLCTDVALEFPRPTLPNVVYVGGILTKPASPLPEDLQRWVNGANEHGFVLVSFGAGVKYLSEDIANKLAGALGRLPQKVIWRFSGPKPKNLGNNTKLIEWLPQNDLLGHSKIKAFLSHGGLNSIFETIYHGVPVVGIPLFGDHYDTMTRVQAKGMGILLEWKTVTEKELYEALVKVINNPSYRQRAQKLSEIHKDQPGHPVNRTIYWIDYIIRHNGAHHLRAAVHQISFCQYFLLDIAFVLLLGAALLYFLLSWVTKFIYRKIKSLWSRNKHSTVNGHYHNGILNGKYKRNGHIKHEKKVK

[2] = biological target: T1, 2-hydroxyacylsphingosine 1-beta-galactosyltransferase; assay: Inhibition of UGT8 in human OE19 cells assessed as redcution in GalCer accumulation measured after 72 hrs by LC-MS/MS analysis; type: cell-based
[3] = Distribution coefficient, log D of the compound; type: physicochemical; details: octanol/water
[4] = Apparent permeability of the compound at pH 6.5 to 7.4 by PAMPA; type: ADME
[5] = Intrinsic clearance in human liver microsomes; type: ADME, Microsome; details: read-out: CLH
[6] = Ratio of drug concentration in brain to plasma in C57BL/6 mouse measured at 1 hr; type: ADME, organism-based; details: read-out: BPR
[7] = Drug uptake in C57BL/6 mouse brain at 3 mg/kg, iv measured at 1 hr; type: ADME, organism-based; details: read-out: Drug uptake
[8] = Drug uptake in C57BL/6 mouse brain at 3 mg/kg, iv measured at 5 mins; type: ADME, organism-based; details: read-out: Drug uptake
[9] = Ratio of drug concentration in brain to plasma in C57BL/6 mouse measured at 5 mins; type: ADME, organism-based; details: read-out: BPR
[10] = Thermodynamic solubility of the compound […] at pH 7.4; type: physicochemical; details: read-out: Therm_solubility

| IC50 [1] [µM] | IC50 [2] [µM] | logD [3] | Papp [4] [nm/s] | microsomal CLint [5] [µL/min/mg] | Kp at 1 h [6] | concentration at 1 h [7] [µg/mL] | concentration at 5 min [8] [µg/mL] | Kp at 5 min [9] | solubility thermodynamic [10] [µM] | Structure (SMILES) |
| --- | --- | --- | --- | --- | --- | --- | --- | --- | --- | --- |
| 0.018 | 0.037 |  |  |  |  |  |  |  |  | CNC(=O)c1csc2c(C(F)(F)F)cc(N3CCC(NC(=O)OCC4CC4)CC3)nc12 |
| 0.64 | 0.32 | 2.7 | 660 | 27 |  |  |  |  |  | CC(C)NC(=O)CN1CCN(c2cc(C(F)(F)F)c3scc(C(=O)N4CCC4)c3n2)CC1 |
| 0.097 | 0.12 | 3.6 | > 800 | 36 | 0.72 | 0.27 | 1.4 | 0.83 |  | CCC(=O)c1csc2c(C(F)(F)F)cc(N3CCN(CC(=O)NC(C)C)CC3)nc12 |
| 0.33 | 0.2 | 3.6 | > 800 | 96 | 1 | 1.7 | 3 | 1.8 |  | CNC(=O)c1csc2c(C(F)(F)F)cc(N3CCN(CCOC(C)C)CC3)nc12 |
| 0.001 | 0.003 | 4.2 | > 800 | 59 | 0.31 | 0.132 | 2.14 | 0.91 |  | CNC(=O)c1csc2c(C(F)(F)F)cc(N3CCC(OC(=O)NCC4CC4)CC3)nc12 |
| 0.0009 | 0.0004 | 4.56 |  |  | 0.76 | 0.192 | 2.37 | 1.45 | < 0.5 | CC[C@H](C)NC(=O)OC1CCN(c2cc(C(F)(F)F)c3scc(C(=O)NC)c3n2)CC1 |
| 0.61 |  |  |  |  |  |  |  |  |  | CNC(=O)c1csc2c(C(F)(F)F)cc(N3CCC(OC(=O)NCC4CC4)C3)nc12 (stereo not drawn) |
| 0.98 |  |  |  |  |  |  |  |  | 420 (≈ 210 µg/mL) | CNC(=O)c1csc2c(C(F)(F)F)cc(N3CCC(OC(=O)N4CC(CN(C)C)C4)CC3)nc12 |
| 0.19 | 0.35 | 3.7 | 780 | 51 | 0.35 | 0.21 | 1.7 | 0.93 |  | CNC(=O)c1csc2c(C(F)(F)F)cc(N3CCN(CC(O)COC(C)(C)C)CC3)nc12 (stereo not drawn) |
| 0.0009 | 0.0011 | 4.29 | > 800 | 70 | 0.42 | 0.143 | 1.48 | 0.76 | < 0.5 | CNC(=O)c1csc2c(C(F)(F)F)cc(N3CCC(OC(=O)N[C@@H](C)C4CC4)CC3)nc12 |
| 0.2 |  |  |  |  |  |  |  |  |  | CNC(=O)c1csc2c(C(F)(F)F)cc(N3CC(OC(=O)NCC4CC4)C3)nc12 |
| 0.048 | 0.043 |  |  |  |  |  |  |  |  | CNC(=O)c1csc2c(C(F)(F)F)cc(N3CC(NC(=O)OCC4CC4)C3)nc12 |
| 0.66 | 0.45 | 3.1 | 690 | 42 | 0.06 | 0.008 | 0.228 | 0.07 |  | CNC(=O)c1csc2c(C(F)(F)F)cc(N3CCN(C(=O)COC(C)C)CC3)nc12 |
| 0.002 | 0.002 | 4.35 | > 800 | 46 | 1.03 | 0.302 | 2.7 | 1.88 |  | CNC(=O)c1csc2c(C(F)(F)F)cc(N3CCC(OC(=O)NC(C)C)CC3)nc12 |
| 0.51 |  |  |  |  |  |  |  |  | 430 (≈ 215 µg/mL) | CNC(=O)c1csc2c(C(F)(F)F)cc(N3CCC(OC(=O)NCCN4CCCC4)CC3)nc12 |
| 0.17 | 0.36 | 3.3 | 750 | 34 |  |  | 0.043 | 0.01 |  | CNC(=O)c1csc2c(C(F)(F)F)cc(N3CCN(C(C)C(=O)NC4CC4)CC3)nc12 (stereo not drawn) |
| 0.0004 | 0.0006 | 4.7 |  |  | 0.24 | 0.128 | 1.64 | 0.59 | < 0.5 | CNC(=O)c1csc2c(C(F)(F)F)cc(N3CCC(OC(=O)NCCOC(F)(F)F)CC3)nc12 |
| 0.61 | 1.4 | 3.3 | > 800 | 5 | 0.54 | 0.17 | 1.1 | 0.81 |  | CNC(=O)c1csc2c(C(F)(F)F)cc(N3CCN(CC(=O)C(C)(C)C)CC3)nc12 |
| 0.067 | 0.09 |  |  |  |  |  |  |  |  | CNC(=O)c1csc2c(C(F)(F)F)cc(N3CCN(CC(=O)NC(C)C)CC3)nc12 |
| 0.0017 | 0.0029 | 5.13 | > 800 | 41 | 0.59 | 0.316 | 3.43 | 1.67 | < 0.5 | CNC(=O)c1csc2c(C(F)(F)F)cc(N3CCC(OC(=O)N4CC(OC(F)(F)F)C4)CC3)nc12 |
